Tested on: SREBP-1c promoter
Experiment: SREBP-1c promoter dual luciferase reporter assay in HEK293T cells with RXRα/LXRα ligands
Assay type: cell-based, human
Settings: ligand(s) in culture solution for 24 hours, firefly relative to Renilla luciferase
Description: A genome DNA fragment coding the SREBP-1c promoter region (located in residues −410 to +24 base region) from mouse genome was amplified, and the resulting fragment was inserted into KpnI and HindIII sites in pGL3-Basic (manufactured by Promega Corporation), to give pGL3-SREBP-1cPro (FIG. 4a).
Human embryonic kidney cells (HEK293T: cell expressing endogenous […] ) were transformed with the control plasmid coding pGL3-srebp-1cPro and Renilla luciferase (manufactured by Promega Corporation) and together with any one plasmid of (i) vacant plasmid, (ii) plasmid coding the HCV core protein, (iii) plasmid coding RXRα and LXRα, and (iv) plasmid coding RXRα, LXRα and the HCV core protein. The transformant obtained was cultivated in a culture solution containing a RXRα's ligand 9-cis-retinoic acid (9cisRA; product of Sigma Corporation), a LXRα's ligand 22(R)-hydroxycholesterol (22(R)HC), or both of them as additives for 24 hours, and then, the cells were collected; the luciferase activity of the cells was determined, similarly to (1) above, by using the dual luciferase reporter assay system (manufactured by Promega Corporation).

Row | Molecule | SREBP-1c promoter activity by the HCV core protein (luciferase activity)
1 | 9-cis-retinoic acid | increase in SREBP-1c promoter activity
2 | CC(C)CC[C@@H](O)[C@@H](C)[C@H]1CC[C@H]2[C@@H]3CC=C4C[C@@H](O)CC[C@]4(C)[C@H]3CC[C@]12C [22(R)-hydroxycholesterol] | increase in SREBP-1c promoter activity

— US8080370B2, “Screening method for prophylactic and/or therapeutic agent for disease accompanied by hepatitis C” (Osaka University, priority 2006, dated 2011)
